The record followed here is ChEMBL document CHEMBL1156376, “Clathsterol, a novel anti-HIV-1 RT sulfated sterol from the sponge Clathria species” (J Nat Prod, 2001).

Structures are written as SMILES. Calls of active or inactive are those of the source. The calls are words filed in the database; no cut-off is given here.

The experiment concerns the target Human immunodeficiency virus type 1 reverse transcriptase (Human immunodeficiency virus 1) (UniProt Q72547). Description: Inhibition of HIV1 reverse transcriptase at 10 uM.

As for `CCCC(=O)OC(C(CC)C(C)C)C(OC(=O)CCC)[C@@H](C)[C@H]1[C@@H](O)[C@H](OC(C)=O)[C@H]2[C@@H]3CCC4C[C@H](OS(=O)(=O)O)[C@@H](OS(=O)(=O)O)C[C@]4(C)[C@H]3CC[C@@]21C` (stereo partly specified), the outcome was Active.
